How the values were obtained:
ABUTH (velvetleaf) = assay: Pre-plant incorporated (PPI) herbicidal activity, warm season; type: in vivo, Abutilon theophrasti
Protocol: (§1) In another set of tests, the pre-plant incorporated (PPI) activity of compounds of this invention was evaluated on the same species as for the pre-emergence tests described above. In the PPI tests the following procedure, designed to simulate PPI application, was used.
(§2) A pre-prepared topsoil mixture (described above) was placed in a pot and compacted to a depth of 1.0 to 1.25 cm from the top of the pot. Seeds of each of several monocotyledonous and dicotyledonous annual plant species were placed on top of the soil. A sufficient quantity of soil to cover the seeds and level fill the pot was weighed into an open container. A known amount of the test compound was dissolved or suspended in an organic solvent and applied by spraying to this cover soil. The cover soil was thoroughly mixed to distribute the test compound throughout the cover soil, and was then applied as a cover layer over the seeds. Untreated soil was used as a cover layer for control pots. After treatment the plants were placed in a greenhouse where they received 0.64 cm of overhead irrigation. All subsequent watering consisted of a light overhead mist and/or subirrigation as needed for germination and growth. Tables 9 and 10 below relate to warm season plant species which were placed after pre-emergence treatment in a greenhouse with a 30/21° C. day/night temperature regime. Tables 11 and 12 below relates to cool season plant species placed after pre-emergence treatment in a greenhouse or growth chamber with an 18/13° C. day/night temperature regime. Only the compounds of Examples 1, 6, 8, 11, 13 and 15-20 were included in PPI tests.
(§3) Approximately 14 days after planting and treating, the plants were observed and herbicidal efficacy recorded as percent inhibition by comparison with untreated plants.

[1] = system: AEGCY (jointed goatgrass); assay: Pre-plant incorporated (PPI) herbicidal activity, cool season; type: in vivo, Aegilops cylindrica
Protocol: as §1, §2, §3

DATST (jimsonweed) = assay: Pre-plant incorporated (PPI) herbicidal activity, warm season; type: in vivo, Datura stramonium
Protocol: as §1, §2, §3

oilseed rape (BRSNS) = assay: Selectivity test, PPI, cool season crop; type: in vivo, Brassica napus; details: Brassica napus, PPI application, read-out: Percent inhibition BRSNS
Protocol: as §2, §3
Additional pre-emergence and PPI tests were conducted by the procedures described above, on warm and cool season weed species in the presence of crop species, to assess herbicidal selectivity. Crop species included in warm season tests were corn (Zea mays, ZEAMX), rice (Oryza sativa, ORYSA) and soybean (Glycine max, GLYMX). Crop species included in cool season tests were wheat (Triticum aestivum, TRZAW), barley (Hordeunm vulgare, HORVX) and oilseed rape (Brassica napus, BRSNS).
Tables 15 and 16 relate to pre-emergence and PPI tests respectively on warm season species. Table 17 relates to pre-emergence tests on cool season species.

POAAN (annual bluegrass) = assay: Pre-plant incorporated (PPI) herbicidal activity, cool season; type: in vivo, Poa annua; details: Poa annua, weed, PPI application, read-out: Percent inhibition POAAN
Protocol: as §1, §2, §3

SORVU (shattercane) [2] = assay: Pre-plant incorporated (PPI) herbicidal activity, warm season; type: in vivo, Sorghum vulgare
Protocol: as §1, §2, §3

STEME (common chickweed) = assay: Pre-plant incorporated (PPI) herbicidal activity, cool season; type: in vivo, Stellaria media
Protocol: as §1, §2, §3

DIGSA (large crabgrass) = assay: Pre-plant incorporated (PPI) herbicidal activity, warm season; type: in vivo, Digitaria sanguinalis
Protocol: as §1, §2, §3

SORVU (shattercane) [3] = assay: Pre-emergence herbicidal activity, warm season; type: in vivo, Sorghum vulgare
Procedure, shortened: (§4)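 Seeds sown in sterilised fertilised topsoil received surface-applied compound in 50:50 acetone/water, typically at 300, 100, 30 and 10 g/ha, then greenhouse-grown at 30/21° C (warm-season species) or 18/13° C (cool-season species). Percent inhibition versus untreated plants was scored at about 14 days, giving GR80; an asterisk marks activity short of 80% at the top rate.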

[4] = system: CHEAL (common lambsquarters); assay: Pre-emergence herbicidal activity, warm season; type: in vivo, Chenopodium album; details: GR80 = lowest tested rate (300, 100, 30, 10 g/ha) with 80% or greater inhibition; approx. 14 days after treating; 30/21° C.
Procedure, shortened: as §4

[5] = pre-plant incorporated, GR80 = lowest tested rate with 80% or greater inhibition, approx. 14 days after treating, 30/21° C.
[6] = pre-plant incorporated, lowest tested rate with 80% or greater inhibition, about 14 days

CCN(CC)C(=O)n1cnc(S(=O)(=O)C(F)(F)Br)n1 [Example 1, 3-(bromodifluoromethylsulfonyl)-1-(N,N-diethylcarbamoyl)-1,2,4-triazole]
inhibition at 10 g/ha (ABUTH (velvetleaf); Abutilon theophrasti, PPI application, 10 g/ha, read-out: Percent inhibition ABUTH): 0%
inhibition at 30 g/ha (ABUTH (velvetleaf); Abutilon theophrasti, PPI application, 30 g/ha, read-out: Percent inhibition ABUTH): 0%
inhibition at 100 g/ha (ABUTH (velvetleaf); Abutilon theophrasti, PPI application, 100 g/ha, read-out: Percent inhibition ABUTH): 0%
inhibition at 300 g/ha (ABUTH (velvetleaf); Abutilon theophrasti, PPI application, 300 g/ha, read-out: Percent inhibition ABUTH): 20%
inhibition at 900 g/ha (ABUTH (velvetleaf); Abutilon theophrasti, PPI application, 900 g/ha, read-out: Percent inhibition ABUTH): 80%
PPI activity (GR80) ABUTH (ABUTH (velvetleaf); [5]): 100 g/ha
inhibition at 30 g/ha ([1]; Aegilops cylindrica, weed, PPI application, 30 g/ha, read-out: Percent inhibition AEGCY): 0%
inhibition at 100 g/ha ([1]; Aegilops cylindrica, weed, PPI application, 100 g/ha, read-out: Percent inhibition AEGCY): 0%
inhibition at 300 g/ha ([1]; Aegilops cylindrica, weed, PPI application, 300 g/ha, read-out: Percent inhibition AEGCY): 40%
inhibition at 900 g/ha ([1]; Aegilops cylindrica, weed, PPI application, 900 g/ha, read-out: Percent inhibition AEGCY): 60%
PPI activity GR80, AEGCY [1, 6]: [empty]
inhibition at 10 g/ha (DATST (jimsonweed); Datura stramonium, PPI application, 10 g/ha, read-out: Percent inhibition DATST): 0%
inhibition at 30 g/ha (DATST (jimsonweed); Datura stramonium, PPI application, 30 g/ha, read-out: Percent inhibition DATST): 0%
inhibition at 100 g/ha (DATST (jimsonweed); Datura stramonium, PPI application, 100 g/ha, read-out: Percent inhibition DATST): 0%
inhibition at 300 g/ha (DATST (jimsonweed); Datura stramonium, PPI application, 300 g/ha, read-out: Percent inhibition DATST): 40%
inhibition at 900 g/ha (DATST (jimsonweed); Datura stramonium, PPI application, 900 g/ha, read-out: Percent inhibition DATST): 95%
PPI activity (GR80) DATST (DATST (jimsonweed); [5]): 30 g/ha
inhibition at 30 g/ha (oilseed rape (BRSNS); 30 g/ha): 60%
inhibition at 100 g/ha (oilseed rape (BRSNS); 100 g/ha): 20%
inhibition at 300 g/ha (oilseed rape (BRSNS); 300 g/ha): 99%
inhibition at 900 g/ha (oilseed rape (BRSNS); 900 g/ha): 100%
inhibition at 30 g/ha (POAAN (annual bluegrass); 30 g/ha): 90%
inhibition at 100 g/ha (POAAN (annual bluegrass); 100 g/ha): 99%
inhibition at 300 g/ha (POAAN (annual bluegrass); 300 g/ha): 100%
inhibition at 900 g/ha (POAAN (annual bluegrass); 900 g/ha): 100%
inhibition at 10 g/ha (SORVU (shattercane) [2]; Sorghum bicolor, PPI application, 10 g/ha, read-out: Percent inhibition SORVU): 20%
inhibition at 30 g/ha (SORVU (shattercane) [2]; Sorghum bicolor, PPI application, 30 g/ha, read-out: Percent inhibition SORVU): 80%
inhibition at 100 g/ha (SORVU (shattercane) [2]; Sorghum bicolor, PPI application, 100 g/ha, read-out: Percent inhibition SORVU): 100%
inhibition at 300 g/ha (SORVU (shattercane) [2]; Sorghum bicolor, PPI application, 300 g/ha, read-out: Percent inhibition SORVU): 100%
inhibition at 900 g/ha (SORVU (shattercane) [2]; Sorghum bicolor, PPI application, 900 g/ha, read-out: Percent inhibition SORVU): 100%
PPI activity GR80, SORVU (SORVU (shattercane) [2]; [6]): 100 g/ha
inhibition at 30 g/ha (STEME (common chickweed); Stellaria media, weed, PPI application, 30 g/ha, read-out: Percent inhibition STEME): 60%
inhibition at 100 g/ha (STEME (common chickweed); Stellaria media, weed, PPI application, 100 g/ha, read-out: Percent inhibition STEME): 100%
inhibition at 300 g/ha (STEME (common chickweed); Stellaria media, weed, PPI application, 300 g/ha, read-out: Percent inhibition STEME): 99%
inhibition at 900 g/ha (STEME (common chickweed); Stellaria media, weed, PPI application, 900 g/ha, read-out: Percent inhibition STEME): 95%
PPI activity GR80, STEME (STEME (common chickweed); [6]): 100 g/ha
inhibition at 10 g/ha (DIGSA (large crabgrass); Digitaria sanguinalis, PPI application, 10 g/ha, read-out: Percent inhibition DIGSA): 80%
inhibition at 30 g/ha (DIGSA (large crabgrass); Digitaria sanguinalis, PPI application, 30 g/ha, read-out: Percent inhibition DIGSA): 95%
inhibition at 100 g/ha (DIGSA (large crabgrass); Digitaria sanguinalis, PPI application, 100 g/ha, read-out: Percent inhibition DIGSA): 100%
inhibition at 300 g/ha (DIGSA (large crabgrass); Digitaria sanguinalis, PPI application, 300 g/ha, read-out: Percent inhibition DIGSA): 100%
inhibition at 900 g/ha (DIGSA (large crabgrass); Digitaria sanguinalis, PPI application, 900 g/ha, read-out: Percent inhibition DIGSA): 100%
PPI activity GR80, DIGSA (DIGSA (large crabgrass); [6]): 100 g/ha
Pre-emergence activity (GR80) SORVU (SORVU (shattercane) [3]; GR80 = lowest tested rate (300, 100, 30, 10 g/ha) with 80% or greater inhibition, approx. 14 days after treating, 30/21° C.): * (activity observed, at least at highest rate, but <80% inhibition)
inhibition at 10 g/ha (SORVU (shattercane) [3]; Sorghum bicolor, pre-emergence application, 10 g/ha, read-out: Percent inhibition, weed SORVU): 0%
inhibition at 30 g/ha (SORVU (shattercane) [3]; Sorghum bicolor, pre-emergence application, 30 g/ha, read-out: Percent inhibition, weed SORVU): 0%
inhibition at 100 g/ha (SORVU (shattercane) [3]; Sorghum bicolor, pre-emergence application, 100 g/ha, read-out: Percent inhibition, weed SORVU): 60%
inhibition at 300 g/ha (SORVU (shattercane) [3]; Sorghum bicolor, pre-emergence application, 300 g/ha, read-out: Percent inhibition, weed SORVU): 80%
inhibition at 900 g/ha (SORVU (shattercane) [3]; Sorghum bicolor, pre-emergence application, 900 g/ha, read-out: Percent inhibition, weed SORVU): 95%
Pre-emergence activity (GR80) CHEAL [4]: 300 g/ha

Reference: patent publication US6461997B1, “Triazole sulfones having herbicidal activity” (Monsanto Technology LLC, priority 1999, dated 2002)
